Assay results from PMC5217682, “Galactomannan Catabolism Conferred by a Polysaccharide Utilization Locus of Bacteroides ovatus” (The Journal of Biological Chemistry, 2016).

Molecular target: T1, BoMan26B (Bacteroides ovatus, UniProt A0ABU3IS29)
T1 construct: gene RO706_12620; residues 1-19 (lipoprotein signal) deleted; His tag kept; expressed in E. coli BL21(DE3); 347 residues, 39,870 Da with tag
T1 sequence (A0ABU3IS29 20-360): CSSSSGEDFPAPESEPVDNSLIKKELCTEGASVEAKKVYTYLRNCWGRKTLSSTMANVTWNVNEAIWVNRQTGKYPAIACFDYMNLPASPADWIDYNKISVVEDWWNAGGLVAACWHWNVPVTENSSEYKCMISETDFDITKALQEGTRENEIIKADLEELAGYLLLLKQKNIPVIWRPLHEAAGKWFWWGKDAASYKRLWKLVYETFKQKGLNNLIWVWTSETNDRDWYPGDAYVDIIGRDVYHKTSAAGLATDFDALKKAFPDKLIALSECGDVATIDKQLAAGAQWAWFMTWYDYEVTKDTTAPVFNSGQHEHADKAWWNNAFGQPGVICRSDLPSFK
Assay: hydrolysis by HPAEC-PAD
Assay type: biochemical
Settings: […] substrate, […] potassium phosphate pH […] °C

OC[C@H]1O[C@@H](O[C@H]2[C@H](O)[C@H](O)[C@H](O[C@H]3[C@H](O)[C@H](O)[C@H](O[C@H]4[C@H](O)[C@H](O)[C@H](O[C@H]5[C@H](O)[C@H](O)C(O)O[C@@H]5CO)O[C@@H]4CO)O[C@@H]3CO)O[C@@H]2CO)[C@@H](O)[C@@H](O)[C@@H]1O (stereo partly shown) [M5, mannopentaose]
hydrolysis by HPAEC-PAD: it hydrolyzed all tested manno oligo- and polysaccharides (M3–M6
